# Experimental data published in US12540161B2, “Linkers” (BicycleTx Limited, priority 2020, dated 2026).
# Key:
# Cathepsin B = Cathepsin B (Homo sapiens, UniProt P07858); experiment: Cathepsin B (CatB) cleavage assay; format: biochemical; settings: for % Parent remaining after incubation with CatB, T = 1 h / % Parent remaining after incubation with CatB, T = 4 h / % Parent remaining after incubation with CatB, T = 24 h: norfloxacin linker compounds
# Protocol: 15 μL of test compound solution (2 mM in DMSO) was added to the incubation plate in duplicate. 30 μL of Cathepsin B stock solution (16 μM) was pre-activated with 1500 μL activation buffer for 10 min at room temperature. The Cathepsin B solution was diluted in 13.17 mL water, then 735 μL activatived enzyme mixture was added to the incubation plate. The mixture was incubated at 37° C. in a waterbath. […] The samples were mixed and centrifuged at 4000 rpm for 20 min. 50 μL of supernatant was taken into a new plate containing 150 μL ultra-pure water and the samples mixed thoroughly before submitting to LC-MS/MS analysis.
# in vitro = settings: for fold increase in half-life vs Cit-Val: 2 μM; for half-life at 2 μM: plasma
# Protocol: Pooled frozen plasma was thawed in a water bath at 37° C. Plasma was centrifuged at 4000 rpm for 5 min and the clots were removed if any. The pH will be adjusted to 7.4±0.1 if required. 1 mM stock solution was prepared with DMSO. Propantheline (positive control) was prepared by making a 100 μM working solution by diluting 5 μL of the stock solution (10 mM) with 495 μL ultra pure water. 100 μM working solutions of test compounds were made up by diluting 10 μL of the stock solution (1 mM) with 90 μL DMSO. 98 μL of blank plasma was spiked with 2 μL of dosing solution (100 μM) to achieve 2 μM of the final concentration in duplicate and samples were incubated at 37° C. in a water bath. […] An aliquot of supernatant (150 μL) was transferred from each well before submitting for LC-MS/MS analysis.
# The % remaining test compound after incubation in plasma was calculated using following equation: Remaining=100×(PAR at appointed incubation time/PAR at T0 time)
# where PAR is the peak area ratio of analyte versus internal standard (IS).
# The half-life (T½) was calculated from a log linear plot of concentration versus time.
"% Parent remaining after incubation with CatB, T = 1 h (Cathepsin B; 1 h)","% Parent remaining after incubation with CatB, T = 4 h (Cathepsin B; 4 h)","% Parent remaining after incubation with CatB, T = 24 h (Cathepsin B; 24 h)","fold increase in half-life vs Cit-Val (in vitro; mouse, pH 7.4)","half-life at 2 μM (in vitro; mouse, pH 7.4)",Compound,"% Parent remaining after incubation with CatB, 0 h (Cathepsin B; BTCs, 0 h)","% Parent remaining after incubation with CatB, 1 h (Cathepsin B; BTCs, 1 h)","% Parent remaining after incubation with CatB, 2 h (Cathepsin B; BTCs, 2 h)","% Parent remaining after incubation with CatB, 4 h (Cathepsin B; BTCs, 4 h)","% Parent remaining after incubation with CatB, 6 h (Cathepsin B; BTCs, 6 h)","% Parent remaining after incubation with CatB, 24 h (Cathepsin B; BTCs, 24 h)","half-life at 40 μM (Cathepsin B; BTCs, read-out: CatB t1/2 (converted))","half-life at 2 μM (in vitro; pH 7.4, Mouse plasma t1/2 (EDTA), BTCs, EDTA anticoagulant)"
–,–,–,–,–,"CC[C@H](C)[C@@H]([C@@H](CC(=O)N1CCC[C@H]1[C@H](OC)[C@@H](C)C(=O)N[C@H](C)[C@@H](O)c1ccccc1)OC)N(C)C(=O)[C@@H](NC(=O)[C@H](C(C)C)N(C)C(=O)OCc1ccc(NC(=O)[C@H](CCN)NC(=O)C2(NC(=O)[C@H](CCC(=O)O)NC(=O)Cn3cc(CCC(=O)NCCC(=O)N(C)CC(=O)N(C)CC(=O)N(C)CC(=O)N(C)CC(=O)N(C)CC(=O)N(C)CC(=O)N(C)CC(=O)N(C)CC(=O)N(C)CC(=O)N(C)CC(=O)N[C@@H](C)C(=O)N[C@H]4CN(C)Cc5cc6cc(c5)CN(C)C[C@@H](C(N)=O)NC(=O)[C@H](C(C)(C)C)NC(=O)[C@H](CC(=O)O)NC(=O)[C@H](Cc5ccc(O)cc5)NC(=O)[C@H](Cc5ccccc5)NC(=O)[C@H](CC(=O)O)NC(=O)[C@H](CCC(=O)O)NC(=O)[C@H](CSC6)NC(=O)[C@@H](C)NC(=O)[C@H](Cc5cccc6ccccc56)NC(=O)[C@H](CCC(=O)O)NC(=O)[C@H](CC(N)=O)NC(=O)[C@@H](C)NC4=O)nn3)CCC2)cc1)C(C)C [BCY10988, MMAE-PAB-(Dab-cBu-Glu)-BCY3900]",100%,109.88%,119%,110%,105%,111%,> 2.41 days,> 3470 min
92%,63%,6%,6.5 fold,156 min,CCn1cc(C(=O)O)c(=O)c2cc(F)c(N3CCN(C(=O)OCc4ccc(NC(=O)[C@H](CN)NC(=O)[C@@H](NC(=O)CCCC(=O)N(C)C)C(C)C)cc4)CC3)cc21 [BCY10298],–,–,–,–,–,–,–,–
3%,0%,0%,1.0 fold,24 min,"CCn1cc(C(=O)O)c(=O)c2cc(F)c(N3CCN(C(=O)OCc4ccc(NC(=O)[C@H](CCCNC(N)=O)NC(=O)[C@@H](NC(=O)CCCC(=O)N(C)C)C(C)C)cc4)CC3)cc21 [BCY9422, reference compound]",–,–,–,–,–,–,–,–

Compound,"% Parent remaining after incubation with CatB, T = 1 h (Cathepsin B; 1 h)","% Parent remaining after incubation with CatB, T = 4 h (Cathepsin B; 4 h)","% Parent remaining after incubation with CatB, T = 24 h (Cathepsin B; 24 h)","fold increase in half-life vs Cit-Val (in vitro; mouse, pH 7.4)","half-life at 2 μM (in vitro; mouse, pH 7.4)","% Parent remaining after incubation with CatB, 0 h (Cathepsin B; BTCs, 0 h)","% Parent remaining after incubation with CatB, 1 h (Cathepsin B; BTCs, 1 h)","% Parent remaining after incubation with CatB, 2 h (Cathepsin B; BTCs, 2 h)","% Parent remaining after incubation with CatB, 4 h (Cathepsin B; BTCs, 4 h)","% Parent remaining after incubation with CatB, 6 h (Cathepsin B; BTCs, 6 h)","% Parent remaining after incubation with CatB, 24 h (Cathepsin B; BTCs, 24 h)","half-life at 40 μM (Cathepsin B; BTCs, read-out: CatB t1/2 (converted))","half-life at 2 μM (in vitro; pH 7.4, Mouse plasma t1/2 (EDTA), BTCs, EDTA anticoagulant)"
CCn1cc(C(=O)O)c(=O)c2cc(F)c(N3CCN(C(=O)OCc4ccc(NC(=O)[C@H](CCN)NC(=O)[C@@H](NC(=O)[C@H](CCC(=O)O)NC(=O)CCCC(=O)N(C)C)C(C)C)cc4)CC3)cc21 [BCY10122],0%,0%,0%,107.5 fold,2340 min,–,–,–,–,–,–,–,–
